This is an account of results in patent publication US20250163029A1, “PYRIDONE OR PYRIMIDONE DERIVATIVE AND APPLICATION THEREOF” (Medshine Discovery Inc., priority 2022, published 2025).

Data set [1] can be described thus: in vivo. Also noted: species or system beagle dogs. As to conditions: beagle, dog. As to the method:
Objective of assay: The druggability of compounds was evaluated by measuring their pharmacokinetic properties in different animal species.
Assay Materials: C57BL6/J strain mice, Sprague-Dawley strain rats and beagle dogs.
The pharmacokinetic characteristics of the compound after intravenous and oral administration were assayed in animals using a standard protocol. In the assay, the candidate compound was prepared into a clear solution (intravenous injection) or a homogeneous suspension (oral administration) and administrated to the animal once. Whole blood samples were collected within 24 hours, and centrifuged at 3200 g for 10 minutes. The supernatant was separated to obtain a plasma sample. The blood concentration was quantitatively analyzed by LC-MS/MS analysis method, and pharmacokinetic parameters such as peak concentration, time to peak, clearance rate, half-life, and area under the drug-time curve were calculated.

Data set [2] has as its system plasma protein. The experiment in a line: Plasma protein binding rate (PPB), SD rats. The class given is in vitro ADME. As to conditions: 2 μM, 4 hours dialysis. As to the method:
(§1) 597 μL of blank plasma from CD-1 mice, SD rats, beagle dogs, cynomolgus monkeys and humans were weighed, and the working solution of the assay compound or the working solution of warfarin was added, so that the final concentration of the assay compound and warfarin in the plasma sample was 2 μM. The samples were mixed thoroughly. The final concentration of DMSO as an organic phase was 0.5%; 50 μL of the assay compound and warfarin plasma samples were pipetted into a sample receiving plate, and the corresponding volume of blank plasma or buffer was immediately added, so that the final volume of each sample well was 100 μL, and the volume ratio of plasma:dialysis buffer was 1:1, and then the stop solution was added to these samples. The samples were used as the To sample for recovery and stability determination. The assay compound and warfarin plasma samples were added to the dosing end of each dialysis well, and blank dialysis buffer was added to the receiving end corresponding to the dialysis well. Then the dialysis plate was sealed with a gas permeable membrane and placed in a humidified 5% CO2 incubator, and incubated with shaking at 37° C. and 100 rpm for 4 hours. […] After protein precipitation, all samples were analyzed by LC/MS/MS, and the free rate (% Unbound) of the compound was calculated by the following formula: […]

In data set [3] the test system is plasma protein. The experiment in a line: Plasma protein binding rate (PPB), CD-1 mice. The class given is in vitro ADME. The following applies: 2 μM, 4 hours dialysis. As to the method: as §1
Data set [4] relates to plasma protein. The experiment in a line: Plasma protein binding rate (PPB), cynomolgus monkeys. The class given is in vitro ADME. As to conditions: Cynomolgus monkey plasma, 2 μM, 4 hours dialysis. As to the method:
as §1

Counter-ions that a name gives are not always drawn.

The Vd is the apparent volume that relates the amount in the body to the concentration in plasma or blood. What is called clearance is a measure of how efficiently the substance is removed, as volume per time. A word on the half-life: it is the time needed for the level to fall by half in the phase considered. As a reminder, the AUC is concentration integrated over time. In general, Cmax refers to the maximum level reached in the sampled fluid or tissue. As usually defined, the Tmax is the time from dosing to the highest level. Take `Cn1cnc(Cc2cn(Cc3cc(F)c(F)cc3F)c(Nc3cc4cn(C)nc4cc3Cl)nc2=O)n1` [Compound 4 hydrochloride]: the Vd in data set [1] (iv, 0.1 mg/kg) turned out to be 2.5 L/kg. Also, the clearance in data set [1] (iv, 0.1 mg/kg) is 7.2 mL/min/kg. For the same molecule, the half-life in data set [1] (iv, 0.1 mg/kg) was 372 min; in data set [1] (po, 0.5 mg/kg), 570 min. In addition, the AUC was 0.504 µM·h in data set [1] (iv, 0.1 mg/kg, AUC); 0.12 µM·h in data set [1] (iv, 0.1 mg/kg, AUCfree); 3.1 µM·h in data set [1] (po, 0.5 mg/kg, AUC); 0.74 µM·h in data set [1] (po, 0.5 mg/kg, AUCfree). Further, the highest level in data set [1] (po, 0.5 mg/kg) (Cmax) was 270 nM. Further, in data set [1] (po, 0.5 mg/kg), the Tmax was determined as 3 h. Besides, the bioavailability in data set [1] (po, 0.5 mg/kg) was found to be 121%. The results for the “PPB_Unbound (%)” value in data set [2], in data set [3] and in data set [4] were 4.5%, 2.8% and 18.8%, respectively.
